Results taken from PubChem BioAssay (NCI).
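The compound was tested at five concentrations on cells cultured in 96-well plates, with a 48-hour exposure period. At the GI50, growth is halved. At the TGI there is no net growth.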

Experiments:
Experiment in all cases: DTP human tumour cell line panel, 48 h
[1] = test system: NCI-H23 lung
[2] = test system: SK-MEL-5 melanoma
[3] = test system: M14 melanoma
[4] = test system: SNB-19 CNS
[5] = test system: SW-620 colon
[6] = test system: UACC-62 melanoma
[7] = test system: NCI-H460 lung
[8] = test system: IGROV1 ovarian
[9] = test system: HCC-2998 colon
[10] = test system: MDA-MB-231 breast
[11] = test system: MCF7 breast
[12] = test system: HCT-15 colon
[13] = test system: UACC-257 melanoma
[14] = test system: CCRF-CEM leukemia
[15] = test system: NCI-H522 lung
[16] = test system: A498 renal
[17] = test system: NCI/ADR-RES ovarian
[18] = test system: EKVX NSCLC
[19] = test system: HT29 colon
[20] = test system: SNB-75 CNS
[21] = test system: SK-MEL-28 melanoma
[22] = test system: NCI-H226 lung
[23] = test system: OVCAR-8 ovarian
[24] = test system: SK-MEL-2 melanoma
[25] = test system: SR leukemia
[26] = test system: HOP-92 NSCLC
[27] = test system: OVCAR-3 ovarian
[28] = test system: SF-268 CNS
[29] = test system: TK-10 renal
[30] = test system: K-562 leukemia
[31] = test system: ACHN renal
[32] = test system: U251 CNS
[33] = test system: HS 578T breast
[34] = test system: BT-549 breast
[35] = test system: SN12C renal
[36] = test system: SF-295 CNS
[37] = test system: T-47D breast
[38] = test system: PC-3 prostate
[39] = test system: RPMI-8226 leukemia
[40] = test system: MALME-3M melanoma
[41] = test system: LOX IMVI melanoma
[42] = test system: OVCAR-4 ovarian
[43] = test system: UO-31 renal
[44] = test system: COLO 205 colon
[45] = test system: RXF 393 renal
[46] = test system: OVCAR-5 ovarian
[47] = test system: 786-0 renal
[48] = test system: KM12 colon
[49] = test system: SK-OV-3 ovarian
[50] = test system: HL-60(TB) leukemia
[51] = test system: HCT-116 colon
[52] = test system: HOP-62 NSCLC
[53] = test system: MOLT-4 leukemia
[54] = test system: MDA-MB-435
[55] = test system: SF-539 CNS
[56] = test system: A549 NSCLC
[57] = test system: CAKI-1 renal

## CC(C)C[C@H]1C(=O)O[C@H](C(C)C)C(=O)N(C)[C@@H](C(C)C)C(=O)O[C@H](C(C)C)C(=O)N(C)[C@@H](C(C)C)C(=O)O[C@H](C(C)C)C(=O)N1C
[1]
  GI50: 3.19 µM
  TGI: > 10 µM
[2]
  GI50: 1870 nM
  TGI: 4.05 µM
[3]
  GI50: 3650 nM
  TGI: > 10000 nM
[4]
  GI50: 3400 nM
  TGI: > 10 µM
[5]
  GI50: 3380 nM
  TGI: > 10000 nM
[6]
  GI50: 3470 nM
  TGI: > 10 µM
[7]
  GI50: 3140 nM
  TGI: > 10000 nM
[8]
  GI50: 4.46 µM
  TGI: > 10 µM
[9]
  GI50: 3900 nM
  TGI: > 10 µM
[10]
  GI50: 2650 nM
  TGI: 8.22 µM
[11]
  GI50: 2820 nM
  TGI: > 10 µM
[12]
  GI50: 3050 nM
  TGI: > 10000 nM
[13]
  GI50: 2620 nM
  TGI: 8.49 µM
[14]
  GI50: 3.5 µM
  TGI: > 10 µM
[15]
  GI50: 2610 nM
  TGI: > 10 µM
[16]
  GI50: 1.72 µM
  TGI: 6.4 µM
[17]
  GI50: 2900 nM
  TGI: > 10000 nM
[18]
  GI50: 3100 nM
  TGI: > 10 µM
[19]
  GI50: 3400 nM
  TGI: > 10000 nM
[20]
  GI50: 2250 nM
  TGI: > 10 µM
[21]
  GI50: 4230 nM
  TGI: > 10 µM
[22]
  GI50: 4010 nM
  TGI: > 10 µM
[23]
  GI50: 3170 nM
  TGI: > 10 µM
[24]
  GI50: 3.04 µM
  TGI: > 10 µM
[25]
  GI50: 3650 nM
  TGI: > 10000 nM
[26]
  GI50: 1700 nM
  TGI: 5.51 µM
[27]
  GI50: 2400 nM
  TGI: > 10 µM
[28]
  GI50: 3710 nM
  TGI: > 10 µM
[29]
  GI50: 3.27 µM
  TGI: > 10 µM
[30]
  GI50: 3700 nM
  TGI: > 10000 nM
[31]
  GI50: 2600 nM
  TGI: 8.83 µM
[32]
  GI50: 3510 nM
  TGI: > 10000 nM
[33]
  GI50: 4.1 µM
  TGI: > 10 µM
[34]
  GI50: 3.43 µM
  TGI: > 10 µM
[35]
  GI50: 3090 nM
  TGI: > 10000 nM
[36]
  GI50: 2720 nM
  TGI: > 10 µM
[37]
  GI50: 2.65 µM
  TGI: 8.43 µM
[38]
  GI50: 3150 nM
  TGI: > 10000 nM
[39]
  GI50: 1530 nM
  TGI: 5.56 µM
[40]
  GI50: 2060 nM
  TGI: 8.67 µM
[41]
  GI50: 3190 nM
  TGI: > 10000 nM
[42]
  GI50: 2370 nM
  TGI: > 10000 nM
[43]
  GI50: 1810 nM
  TGI: 7.69 µM
[44]
  GI50: 1640 nM
  TGI: 3.29 µM
[45]
  GI50: 3330 nM
  TGI: > 10000 nM
[46]
  GI50: 2880 nM
  TGI: > 10000 nM
[47]
  GI50: 3710 nM
  TGI: > 10000 nM
[48]
  GI50: 3250 nM
  TGI: > 10 µM
[49]
  GI50: 2210 nM
  TGI: 6.05 µM
[50]
  GI50: 2320 nM
  TGI: 5.23 µM
[51]
  GI50: 3180 nM
  TGI: > 10000 nM
[52]
  GI50: 2820 nM
  TGI: > 10 µM
[53]
  GI50: 3270 nM
  TGI: > 10000 nM
[54]
  GI50: 3460 nM
  TGI: > 10000 nM
[55]
  GI50: 3200 nM
  TGI: > 10000 nM
[56]
  GI50: 3440 nM
  TGI: > 10000 nM

## OC1CCN(CCCOc2c3ccc(Cl)cc3nc3c2oc2ccc(Cl)cc23)CC1
[2]
  GI50: 2230 nM
  TGI: 5.03 µM
[3]
  GI50: 1430 nM
  TGI: 2840 nM
[4]
  GI50: 1450 nM
  TGI: 3.22 µM
[5]
  GI50: 455 nM
  TGI: 1790 nM
[6]
  GI50: 1830 nM
  TGI: 3.78 µM
[7]
  GI50: 465 nM
  TGI: 1990 nM
[8]
  GI50: 1.71 µM
  TGI: 15 µM
[9]
  GI50: 868 nM
  TGI: 15.8 µM
[10]
  GI50: 1260 nM
  TGI: 2.87 µM
[12]
  GI50: 518 nM
  TGI: 2070 nM
[13]
  GI50: 1790 nM
  TGI: 3.68 µM
[15]
  GI50: 1800 nM
  TGI: 11.1 µM
[16]
  GI50: 6.74 µM
  TGI: 21.1 µM
[17]
  GI50: 718 nM
  TGI: 2770 nM
[18]
  GI50: 2840 nM
  TGI: 13.2 µM
[19]
  GI50: 505 nM
  TGI: 1770 nM
[20]
  GI50: 2850 nM
  TGI: 16.3 µM
[21]
  GI50: 1770 nM
  TGI: 3.18 µM
[22]
  GI50: 1670 nM
  TGI: 4.13 µM
[23]
  GI50: 1540 nM
  TGI: 18.9 µM
[24]
  GI50: 5.32 µM
  TGI: 17.7 µM
[25]
  GI50: 595 nM
  TGI: 2620 nM
[26]
  GI50: 588 nM
  TGI: 6.77 µM
[27]
  GI50: 1560 nM
  TGI: 4.12 µM
[28]
  GI50: 1150 nM
  TGI: 4.5 µM
[29]
  GI50: 3.05 µM
  TGI: 8.4 µM
[30]
  GI50: 417 nM
  TGI: 1930 nM
[31]
  GI50: 504 nM
  TGI: 1.69 µM
[32]
  GI50: 876 nM
  TGI: 2270 nM
[33]
  GI50: 2.75 µM
  TGI: 17.2 µM
[34]
  GI50: 4.51 µM
  TGI: 18.9 µM
[35]
  GI50: 864 nM
  TGI: 2380 nM
[36]
  GI50: 3020 nM
  TGI: 15.8 µM
[37]
  GI50: 5.77 µM
  TGI: 36.5 µM
[38]
  GI50: 1230 nM
  TGI: 2550 nM
[40]
  GI50: 1730 nM
  TGI: 3.48 µM
[41]
  GI50: 298 nM
  TGI: 1420 nM
[42]
  GI50: 1240 nM
  TGI: 2790 nM
[43]
  GI50: 768 nM
  TGI: 2.17 µM
[44]
  GI50: 1160 nM
  TGI: 3.18 µM
[45]
  GI50: 1240 nM
  TGI: 2520 nM
[46]
  GI50: 1380 nM
  TGI: 2850 nM
[47]
  GI50: 1130 nM
  TGI: 2490 nM
[48]
  GI50: 1060 nM
  TGI: 3.61 µM
[49]
  GI50: 3370 nM
  TGI: 15.5 µM
[50]
  GI50: 1480 nM
  TGI: 3.23 µM
[51]
  GI50: 417 nM
  TGI: 1590 nM
[52]
  GI50: 1850 nM
  TGI: 12.5 µM
[53]
  GI50: 443 nM
  TGI: 1960 nM
[54]
  GI50: 1340 nM
  TGI: 2700 nM
[55]
  GI50: 1360 nM
  TGI: 2670 nM
[56]
  GI50: 1050 nM
  TGI: 2500 nM
[57]
  GI50: 877 nM
  TGI: 2120 nM
